# Experimental data from patent US20230051563A1, “NON-ELICITED DEDIFFERENTIATED LAVANDULA ANGUSTIFOLIA PLANT CELLS, EXTRACTS THEREOF AND COSMETIC USES THEREOF” (L'OREAL, priority 2019, published 2023).
# Tested on: isolated stratum corneum
# Experiment: Moisturizing potential on isolated stratum corneum by measurement with a corneometer
# Conditions: 5% by weight in 80%/20% water/n-propanol, 10 μL/cm2 on SC, 4 hours, 75% relative humidity, 25° C.
# Description: A test was performed to evaluate the moisturizing potential of the extracts of the invention formulated in a vehicle (80%/20% water/n-propanol) in an amount of 5% by weight relative to the total weight of the composition. The technique makes it possible to measure the dielectric capacitance of the stratum corneum (SC), which depends on the mean dielectric permittivity value of the tissue. The dielectric permittivity varies greatly with the amount of water contained in the SC. The SC samples are conditioned at 75% relative humidity and at 25° C. before/during the measurements and the treatment. The capacitance measurement is performed using a CorneometerTM (Courage & Khazaka, Germany). […] Using at least two different batches of SC, four to five SC samples are measured per treatment. The variation in the corneometer signal (HCM) after treatment is calculated first for each SC sample: […]0). The mean of the DHCMi(vehicle) variations is then calculated for the control samples (treated with the vehicle): this mean value is subtracted from all the DHCMi(active agent) and DHCMi(positive control) variations to correct for the systematic bias. […]
smiles,measurement,value
"OCC(O)CO [Glycerol, glycerol]","% norm (corneometer signal variation, vehicle-corrected, normalized to glycerol)",100%
